Results reported in PMC5765548 (Journal of medicinal chemistry, 2017).

Assays:
ALDH3A1 = target: T1, ALDH3A1 (Homo sapiens, UniProt P30838); assay: ALDH3A1 dehydrogenase activity; type: biochemical; details: read-out: IC50 ALDH3A1; 300 μM benzaldehyde, 300 μM NADP+, pH 7.5
T1 sequence (P30838 1-453): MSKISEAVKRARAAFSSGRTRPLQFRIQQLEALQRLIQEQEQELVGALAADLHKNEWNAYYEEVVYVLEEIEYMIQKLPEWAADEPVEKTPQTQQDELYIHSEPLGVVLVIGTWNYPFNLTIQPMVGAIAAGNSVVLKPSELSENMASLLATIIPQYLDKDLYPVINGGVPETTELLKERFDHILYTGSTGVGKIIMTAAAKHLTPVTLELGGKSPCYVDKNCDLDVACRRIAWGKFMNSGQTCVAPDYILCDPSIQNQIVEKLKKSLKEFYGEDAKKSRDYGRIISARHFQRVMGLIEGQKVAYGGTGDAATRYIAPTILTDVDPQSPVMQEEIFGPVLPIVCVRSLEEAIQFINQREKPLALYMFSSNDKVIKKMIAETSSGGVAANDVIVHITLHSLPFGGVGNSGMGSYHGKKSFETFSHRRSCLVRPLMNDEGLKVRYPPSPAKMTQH

ALDH1A1 [1] = target: T2, ALDH1A1 (Homo sapiens, UniProt P00352); details: for Mode of inhibition of ALDH1A1 versus varied NAD+: 1 mM propionaldehyde
T2 sequence (P00352 1-501): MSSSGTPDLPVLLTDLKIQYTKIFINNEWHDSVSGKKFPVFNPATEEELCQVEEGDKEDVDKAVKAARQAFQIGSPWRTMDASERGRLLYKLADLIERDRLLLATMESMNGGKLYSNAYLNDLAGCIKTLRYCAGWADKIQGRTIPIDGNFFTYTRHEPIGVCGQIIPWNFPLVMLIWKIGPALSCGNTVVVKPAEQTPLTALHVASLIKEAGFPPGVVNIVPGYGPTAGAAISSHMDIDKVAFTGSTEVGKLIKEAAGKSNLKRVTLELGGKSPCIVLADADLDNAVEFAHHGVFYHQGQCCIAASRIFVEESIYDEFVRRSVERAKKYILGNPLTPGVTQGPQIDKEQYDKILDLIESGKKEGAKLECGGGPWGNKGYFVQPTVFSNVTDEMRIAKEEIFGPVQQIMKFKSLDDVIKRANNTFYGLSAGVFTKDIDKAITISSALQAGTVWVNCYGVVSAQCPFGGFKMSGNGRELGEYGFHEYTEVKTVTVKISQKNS

ALDH1A1 [2] = target: T2, ALDH1A1; assay: ALDH1A1 dehydrogenase activity, NADH formation at 340 nm; type: biochemical; details: for inhibition at 10 µM: read-out: Inhibition of ALDH1A1 at 10 μM; for IC50: read-out: IC50 ALDH1A1, 100 μM propionaldehyde, 200 μM NAD+, 1% DMSO, pH 7.5, 25 °C
ALDH2 [3] = target: T3, ALDH2 (Homo sapiens, UniProt P05091); details: 1 mM propionaldehyde
T3 sequence (P05091 18-517): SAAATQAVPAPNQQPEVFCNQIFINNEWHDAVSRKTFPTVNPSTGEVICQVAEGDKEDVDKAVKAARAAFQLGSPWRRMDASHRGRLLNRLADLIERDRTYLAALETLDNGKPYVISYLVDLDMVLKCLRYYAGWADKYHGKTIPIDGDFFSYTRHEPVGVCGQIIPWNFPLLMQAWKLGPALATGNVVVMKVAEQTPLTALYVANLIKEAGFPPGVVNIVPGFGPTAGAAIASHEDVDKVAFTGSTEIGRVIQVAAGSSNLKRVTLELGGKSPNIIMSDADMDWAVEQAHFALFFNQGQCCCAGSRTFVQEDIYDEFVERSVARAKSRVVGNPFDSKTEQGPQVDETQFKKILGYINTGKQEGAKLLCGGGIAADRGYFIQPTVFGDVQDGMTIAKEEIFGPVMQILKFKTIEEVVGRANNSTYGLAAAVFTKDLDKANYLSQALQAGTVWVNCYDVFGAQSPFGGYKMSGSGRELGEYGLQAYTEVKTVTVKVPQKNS

ALDH2 [4] = target: T3, ALDH2; assay: ALDH2 dehydrogenase activity, NADH formation at 340 nm; type: biochemical
ALDH1B1 = target: T4, ALDH1B1 (Homo sapiens, UniProt P30837); details: read-out: IC50 ALDH1B1; 200 μM propionaldehyde, 500 μM NAD+, 25 °C
T4 sequence (P30837 18-517): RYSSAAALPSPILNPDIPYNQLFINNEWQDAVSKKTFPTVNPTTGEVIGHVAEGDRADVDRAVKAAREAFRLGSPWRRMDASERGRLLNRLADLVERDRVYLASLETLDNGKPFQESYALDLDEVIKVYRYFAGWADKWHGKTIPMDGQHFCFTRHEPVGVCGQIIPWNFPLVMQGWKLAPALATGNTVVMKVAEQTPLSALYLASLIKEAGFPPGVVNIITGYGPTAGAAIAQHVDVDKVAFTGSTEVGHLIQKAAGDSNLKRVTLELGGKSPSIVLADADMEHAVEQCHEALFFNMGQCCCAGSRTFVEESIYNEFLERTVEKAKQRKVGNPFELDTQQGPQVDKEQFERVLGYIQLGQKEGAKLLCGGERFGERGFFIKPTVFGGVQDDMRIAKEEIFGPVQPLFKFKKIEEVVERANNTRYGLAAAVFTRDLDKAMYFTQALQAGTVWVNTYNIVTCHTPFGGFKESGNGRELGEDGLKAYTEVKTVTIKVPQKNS

ALDH1A3 = target: T5, ALDH1A3 (Homo sapiens, UniProt P47895); details: read-out: IC50 ALDH1A3; 100 μM propionaldehyde, 200 μM NAD+, 1% DMSO, pH 7.5, 25 °C
T5 sequence (P47895 1-512): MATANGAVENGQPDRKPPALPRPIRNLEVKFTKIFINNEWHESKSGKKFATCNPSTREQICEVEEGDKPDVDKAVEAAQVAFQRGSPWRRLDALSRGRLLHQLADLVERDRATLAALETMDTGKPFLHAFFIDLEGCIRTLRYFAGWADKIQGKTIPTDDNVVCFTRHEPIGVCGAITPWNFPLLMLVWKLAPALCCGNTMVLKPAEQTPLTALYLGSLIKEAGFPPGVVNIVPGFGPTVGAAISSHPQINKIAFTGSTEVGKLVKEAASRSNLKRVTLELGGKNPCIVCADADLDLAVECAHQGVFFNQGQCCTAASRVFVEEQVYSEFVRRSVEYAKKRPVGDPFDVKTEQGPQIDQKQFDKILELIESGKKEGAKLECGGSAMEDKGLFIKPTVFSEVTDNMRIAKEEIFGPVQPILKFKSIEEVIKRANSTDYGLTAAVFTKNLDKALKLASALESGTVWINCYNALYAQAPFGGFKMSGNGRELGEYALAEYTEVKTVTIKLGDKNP

ALDH1A2 = target: T6, ALDH1A2 (Homo sapiens, UniProt O94788); details: read-out: IC50 ALDH1A2; 100 μM propionaldehyde, 200 μM NAD+, 1% DMSO, pH 7.5, 25 °C
T6 sequence (O94788 1-518): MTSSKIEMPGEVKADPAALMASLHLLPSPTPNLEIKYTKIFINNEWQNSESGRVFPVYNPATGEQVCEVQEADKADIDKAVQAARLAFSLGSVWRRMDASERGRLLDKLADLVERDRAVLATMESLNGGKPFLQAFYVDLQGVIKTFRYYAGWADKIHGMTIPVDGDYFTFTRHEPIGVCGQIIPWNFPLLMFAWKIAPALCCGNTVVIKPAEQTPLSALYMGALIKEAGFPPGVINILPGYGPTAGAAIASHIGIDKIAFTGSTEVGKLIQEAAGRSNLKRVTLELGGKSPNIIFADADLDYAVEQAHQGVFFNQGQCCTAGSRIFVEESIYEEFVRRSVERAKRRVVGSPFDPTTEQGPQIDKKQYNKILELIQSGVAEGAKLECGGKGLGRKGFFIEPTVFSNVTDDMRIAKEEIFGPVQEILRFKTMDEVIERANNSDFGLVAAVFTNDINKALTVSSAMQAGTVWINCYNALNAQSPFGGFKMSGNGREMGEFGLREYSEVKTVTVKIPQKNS

ALDH1L1 (rat) = target: T7, ALDH1L1 (rat) (Rattus norvegicus, UniProt P28037); assay: ALDH1L1 dehydrogenase activity, NADPH formation at 340 nm; type: biochemical; details: read-out: IC50 ALDH1L1 (rat); 4 mM propionaldehyde, 500 μM NADP+
T7 sequence (P28037 1-902): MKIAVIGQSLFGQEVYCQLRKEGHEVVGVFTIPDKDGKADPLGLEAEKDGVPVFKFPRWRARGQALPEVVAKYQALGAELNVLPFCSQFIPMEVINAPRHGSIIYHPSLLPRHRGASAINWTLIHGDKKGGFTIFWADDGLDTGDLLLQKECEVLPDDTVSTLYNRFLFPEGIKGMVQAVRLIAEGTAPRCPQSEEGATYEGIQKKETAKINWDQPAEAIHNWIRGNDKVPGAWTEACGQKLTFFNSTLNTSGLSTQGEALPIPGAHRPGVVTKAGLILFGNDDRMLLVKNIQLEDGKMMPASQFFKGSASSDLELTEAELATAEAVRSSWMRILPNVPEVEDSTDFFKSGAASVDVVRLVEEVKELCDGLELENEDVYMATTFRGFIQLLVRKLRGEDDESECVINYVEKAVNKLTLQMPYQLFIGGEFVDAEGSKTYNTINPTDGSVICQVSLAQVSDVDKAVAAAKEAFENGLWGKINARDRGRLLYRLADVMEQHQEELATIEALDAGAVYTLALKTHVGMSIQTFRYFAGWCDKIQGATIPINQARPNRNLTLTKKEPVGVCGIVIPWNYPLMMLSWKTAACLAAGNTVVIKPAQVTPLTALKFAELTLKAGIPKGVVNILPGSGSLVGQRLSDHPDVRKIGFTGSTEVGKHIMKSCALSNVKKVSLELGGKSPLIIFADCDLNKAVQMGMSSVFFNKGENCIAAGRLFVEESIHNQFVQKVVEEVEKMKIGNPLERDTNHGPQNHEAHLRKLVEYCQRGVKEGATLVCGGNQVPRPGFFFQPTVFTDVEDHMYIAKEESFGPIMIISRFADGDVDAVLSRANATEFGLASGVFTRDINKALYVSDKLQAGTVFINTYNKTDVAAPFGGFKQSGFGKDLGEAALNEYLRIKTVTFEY

Row | Structure (SMILES) | IC50 (ALDH3A1) [µM] | Mode of inhibition of ALDH1A1 versus varied NAD+ (ALDH1A1 [1]) | Mode of inhibition of ALDH2 versus varied NAD+ (ALDH2 [3]) | further results
1 | Cc1oc2cc3oc(=O)c4c(c3cc2c1C)CCC4 [Compound 11] | > 100 | – | – | –
2 | Cc1oc2cc3oc(=O)c(CCC(=O)N4CCCCC4)c(C)c3cc2c1C [Compound 15] | > 100 | uncompetitive | competitive | inhibition at 10 µM (ALDH1A1 [2]): > 90%; inhibition at 10 µM (ALDH2 [4]; read-out: Inhibition of ALDH2 at 10 μM): > 90%
3 | Cc1c(C)c2c(cc(C)c3c(C)coc32)oc1=O [Compound 23] | > 100 | – | – | IC50 (ALDH1A1 [2]): > 100 µM; Emax (ALDH2 [4]; read-out: Max inhibition ALDH2): 50 to 60%
4 | Cc1cc(=O)oc2cc(OCC#N)ccc12 [Compound 30] | – | noncompetitive | noncompetitive (mixed-type) | –
5 | CCN(CC)c1ccc2c(C)cc(=O)oc2c1 [Compound 32] | > 100 | noncompetitive | – | Mode of inhibition of ALDH1A1 versus varied acetaldehyde (ALDH1A1 [1]; 1 mM NAD+, varied acetaldehyde): noncompetitive; Fold selective for ALDH1A1 versus ALDH1A2 (ALDH1A1 [2]): 10 fold; inhibition at 10 µM (ALDH1A1 [2]): ~85%; IC50 (ALDH1B1): > 100 µM; IC50 (ALDH1A3): > 100 µM
6 | Cc1c(Cc2ccccc2)c(=O)oc2cc(OS(C)(=O)=O)ccc12 [Compound 34] | > 100 | – | – | –
7 | C/C(=N\O)c1cc2cc(Br)ccc2oc1=O [Compound 36] | > 100 | – | competitively | IC50 (ALDH1A1 [2]): > 100 µM; IC50 (ALDH1A2): > 100 µM; IC50 (ALDH1B1): > 100 µM
8 | O=c1c(-c2ccc(O)cc2)coc2cc(O[C@@H]3O[C@H](CO)[C@@H](O)[C@H](O)[C@H]3O)ccc12 [Daidzin, daidzin, reference compound] | > 100 | – | – | IC50 (ALDH1L1 (rat)): > 100 µM
